Experimental findings from ChEMBL document CHEMBL1921764, “Substrate profiling of IGF-1R and InsR: identification of a potent pentamer substrate” (Bioorg Med Chem Lett, 2011) are described below.

Activity calls are given as the source filed them. No cut-off for these calls is given here. Peptide text beside a SMILES is read from it.

Assay [1] concerns the target Insulin-like growth factor 1 receptor (Homo sapiens) (UniProt P08069). Kind of assay: Activity of pre-activated human GST-His6-tagged IGF-1R assessed as compound phosphorylation at 500 uM measured every 2 mins for 60 mins by ADP-Quest assay.
In assay [2] the target is Insulin receptor (Homo sapiens) (UniProt P06213). Put plainly: Activity of pre-activated human GST-His6-tagged InsR assessed as compound phosphorylation at 500 uM measured every 2 mins for 60 mins by ADP-Quest assay.
Sequence of Insulin receptor (Homo sapiens) (P06213 28-758 limits assumed): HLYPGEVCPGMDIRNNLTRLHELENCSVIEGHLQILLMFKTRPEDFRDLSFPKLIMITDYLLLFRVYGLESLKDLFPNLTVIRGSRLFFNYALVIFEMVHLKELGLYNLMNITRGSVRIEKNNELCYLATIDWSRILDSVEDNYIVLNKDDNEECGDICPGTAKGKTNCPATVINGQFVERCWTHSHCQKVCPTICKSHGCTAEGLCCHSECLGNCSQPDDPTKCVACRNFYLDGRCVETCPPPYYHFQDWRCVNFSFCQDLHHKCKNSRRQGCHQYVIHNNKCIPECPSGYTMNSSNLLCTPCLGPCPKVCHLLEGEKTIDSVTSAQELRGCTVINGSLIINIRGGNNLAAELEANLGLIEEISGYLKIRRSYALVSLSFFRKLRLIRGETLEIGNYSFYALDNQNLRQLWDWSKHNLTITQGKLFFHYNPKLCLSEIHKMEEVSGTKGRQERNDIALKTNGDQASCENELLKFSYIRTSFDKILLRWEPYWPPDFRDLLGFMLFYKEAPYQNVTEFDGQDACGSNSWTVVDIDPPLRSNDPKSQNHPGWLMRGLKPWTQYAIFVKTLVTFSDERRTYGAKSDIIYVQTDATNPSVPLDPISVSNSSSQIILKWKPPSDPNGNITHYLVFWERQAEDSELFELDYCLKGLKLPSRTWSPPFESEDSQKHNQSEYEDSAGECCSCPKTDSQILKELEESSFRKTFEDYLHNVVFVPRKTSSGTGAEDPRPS
Sequence of Insulin receptor (Homo sapiens) (P06213 763-1382 limits assumed): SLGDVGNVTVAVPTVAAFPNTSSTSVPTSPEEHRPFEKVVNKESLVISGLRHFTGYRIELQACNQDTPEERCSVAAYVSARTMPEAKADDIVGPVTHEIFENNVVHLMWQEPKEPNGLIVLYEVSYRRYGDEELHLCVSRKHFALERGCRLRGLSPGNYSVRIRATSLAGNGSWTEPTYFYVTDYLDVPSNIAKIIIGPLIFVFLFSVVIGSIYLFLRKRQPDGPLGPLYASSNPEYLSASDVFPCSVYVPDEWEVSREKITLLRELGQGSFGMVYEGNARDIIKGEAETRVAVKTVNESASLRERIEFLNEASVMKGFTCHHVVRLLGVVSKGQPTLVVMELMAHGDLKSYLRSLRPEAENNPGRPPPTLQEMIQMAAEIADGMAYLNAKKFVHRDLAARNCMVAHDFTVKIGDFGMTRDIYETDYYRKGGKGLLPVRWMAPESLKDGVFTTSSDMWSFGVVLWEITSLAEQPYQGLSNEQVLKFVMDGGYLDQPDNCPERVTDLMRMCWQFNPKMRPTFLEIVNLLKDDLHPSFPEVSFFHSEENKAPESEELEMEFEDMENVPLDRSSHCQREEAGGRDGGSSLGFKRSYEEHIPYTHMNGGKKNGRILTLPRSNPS

Sequence of Insulin-like growth factor 1 receptor (Homo sapiens) (P08069 31-736 limits assumed): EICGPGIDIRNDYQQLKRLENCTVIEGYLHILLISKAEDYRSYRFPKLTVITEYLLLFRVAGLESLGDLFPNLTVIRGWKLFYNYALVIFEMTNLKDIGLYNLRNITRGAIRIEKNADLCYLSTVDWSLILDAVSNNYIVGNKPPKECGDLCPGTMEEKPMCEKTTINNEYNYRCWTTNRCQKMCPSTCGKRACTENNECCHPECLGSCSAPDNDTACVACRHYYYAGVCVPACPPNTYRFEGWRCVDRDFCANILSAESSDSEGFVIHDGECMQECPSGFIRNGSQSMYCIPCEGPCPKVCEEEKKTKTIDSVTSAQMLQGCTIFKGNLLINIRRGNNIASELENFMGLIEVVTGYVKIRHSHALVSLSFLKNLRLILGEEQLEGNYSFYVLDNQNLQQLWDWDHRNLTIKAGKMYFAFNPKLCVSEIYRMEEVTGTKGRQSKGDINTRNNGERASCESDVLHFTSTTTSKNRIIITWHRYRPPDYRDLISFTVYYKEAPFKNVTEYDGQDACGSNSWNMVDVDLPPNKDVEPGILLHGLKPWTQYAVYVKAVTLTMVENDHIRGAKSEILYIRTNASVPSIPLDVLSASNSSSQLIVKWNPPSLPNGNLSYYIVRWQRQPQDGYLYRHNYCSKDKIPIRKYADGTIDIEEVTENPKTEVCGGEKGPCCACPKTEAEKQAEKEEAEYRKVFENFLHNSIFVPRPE
Sequence of Insulin-like growth factor 1 receptor (Homo sapiens) (P08069 741-1367 limits assumed): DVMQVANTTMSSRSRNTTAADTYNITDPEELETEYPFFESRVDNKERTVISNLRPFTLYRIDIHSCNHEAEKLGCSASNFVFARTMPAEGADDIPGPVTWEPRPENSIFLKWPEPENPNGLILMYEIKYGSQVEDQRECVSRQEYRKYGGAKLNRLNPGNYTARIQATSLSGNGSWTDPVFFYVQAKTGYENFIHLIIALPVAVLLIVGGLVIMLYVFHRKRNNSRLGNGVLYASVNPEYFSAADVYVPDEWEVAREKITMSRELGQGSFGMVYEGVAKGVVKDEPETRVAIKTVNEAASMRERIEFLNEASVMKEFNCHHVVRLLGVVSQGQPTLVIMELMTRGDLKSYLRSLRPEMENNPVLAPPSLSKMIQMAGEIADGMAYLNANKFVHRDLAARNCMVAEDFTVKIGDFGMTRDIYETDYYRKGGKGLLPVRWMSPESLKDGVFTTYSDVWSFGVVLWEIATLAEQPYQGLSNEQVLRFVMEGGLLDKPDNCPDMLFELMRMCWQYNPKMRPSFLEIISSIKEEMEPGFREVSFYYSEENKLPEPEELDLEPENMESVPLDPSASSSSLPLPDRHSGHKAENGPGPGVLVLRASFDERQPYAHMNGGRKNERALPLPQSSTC

Consider `N[C@@H](CC(=O)O)C(=O)N[C@@H](Cc1ccc(O)cc1)C(=O)N[C@@H](Cc1ccccc1)C(=O)N[C@@H](CCC(=O)O)C(=O)O` (H-DYFE-OH), for which the result in assay [1] and in assay [2] was inactive.
Turning to `N[C@@H](Cc1ccc(O)cc1)C(=O)N[C@@H](Cc1ccccc1)C(=O)N[C@@H](CCC(=O)O)C(=O)O` (H-Tyr-Phe-Glu-OH), the result in assay [1] and in assay [2] was inactive.
For the compound `N[C@@H](Cc1ccc(O)cc1)C(=O)N[C@@H](Cc1ccccc1)C(=O)N[C@@H](CCC(=O)O)C(=O)N[C@@H](Cc1c[nH]c2ccccc12)C(=O)O` (H-YFEW-OH), in assay [2], the outcome was inactive.
As for H-EQEDEPEGAYFEWLE-OH, the result in assay [1] and in assay [2] was inactive.
On to H-EQEDEPEGDYFEALE-OH, for which the result in assay [1] and in assay [2] was inactive.
In the case of H-GDYFE-OH, the result in assay [2] was inactive.
As to H-GEYVN-OH, the outcome in assay [1] and in assay [2] was inactive.
Consider H-KKKSPGEYVNAEFG-OH, for which the result in assay [1] and in assay [2] was inactive.
As for H-KKKSPGEYVNIEAG-OH, the result in assay [1] and in assay [2] was inactive.
Regarding H-KSPGEYVNIE-OH, the outcome in assay [1] and in assay [2] was inactive.
Consider H-PGEYVN-OH, for which the result in assay [1] and in assay [2] was inactive.
In the case of H-PGEYVNI-OH, the outcome in assay [1] and in assay [2] was inactive.
For H-SPGEYVNI-OH, the result in assay [1] and in assay [2] was inactive.
In the case of H-SPGEYVNIE-OH, the outcome in assay [1] and in assay [2] was inactive.
